Assay results as given in paper PMC9340770 (Journal of Medicinal Chemistry, 2022).
Where two headings read alike, the source gives them in different places.

Assays:
[1] = in vivo; conditions: CD-1, mouse, po, 30 mg/kg
[2] = target: T1, INSR (Homo sapiens, UniProt P06213); test: Safetyscan Kinases Binding; conditions: read-out: RC50 (IC50) INSR Inhibitor
T1 construct: purchased DiscoverX (Eurofins)

[3] = target: T2, PDE3A (Homo sapiens, UniProt Q14432); test: Safetyscan Enzymatic; format: biochemical; conditions: read-out: RC50 (IC50) PDE3A Inhibitor
T2 construct: purchased DiscoverX (Eurofins)

[4] = target: T3, ADRB1 (Homo sapiens, UniProt P08588); test: Safetyscan cAMP; format: cell-based
T3 construct: purchased DiscoverX (Eurofins) Safetyscan Panel

[5] = target: T4, GR (Homo sapiens, UniProt P04150); test: Safetyscan NHR Protein Interaction; format: cell-based
T4 construct: purchased DiscoverX (Eurofins)

[6] = target: T5, VEGFR2 (Homo sapiens, UniProt P35968); test: Safetyscan Kinases Binding; conditions: read-out: RC50 (IC50) VEGFR2 Inhibitor
T5 construct: purchased DiscoverX (Eurofins)

[7] = target: CYP3A4 (Homo sapiens, UniProt P08684); test: biochemical
[8] = target: T6, HRH2 (Homo sapiens, UniProt P25021); test: Safetyscan cAMP; format: cell-based
T6 construct: purchased DiscoverX (Eurofins) Safetyscan Panel

[9] = CNS mouse PK study; format: in vivo, female CD-1 mice; conditions: female, CD-1, mouse, CSF / free plasma, read-out: CSF:Cp,u (Kp,uu)
Excerpt: Table 10 CNS Mouse PK Profile of MRTX0902 (32) ^a | column: mean free plasma concn (Cp,u, nM); mean brain concn (ng/g); mean CSF concn (nM); CSF:Cp,u (Kp,uu)

[10] = target: T7, ADORA2A (Homo sapiens, UniProt P29274); test: Safetyscan Calcium Flux; format: cell-based
T7 construct: purchased DiscoverX (Eurofins) Safetyscan Panel

[11] = target: T8, CAV1.2 (Homo sapiens, UniProt Q13936); test: Safetyscan Ion Channel; format: cell-based; conditions: blocker mode, read-out: RC50 (IC50) CAV1.2 Blocker
T8 construct: purchased DiscoverX (Eurofins)

[12] = target: T9, LCK (Homo sapiens, UniProt P06239); test: Safetyscan Kinases Binding; conditions: read-out: RC50 (IC50) LCK Inhibitor
T9 construct: purchased DiscoverX (Eurofins)

[13] = Rat PK (IV and PO); format: in vivo, Sprague–Dawley rats
Excerpt: Table 9 PK Parameters for MRTX0902 (32) across Species | column: rat

[14] = PK across species (ranges); format: in vivo, CD-1 mice, Sprague–Dawley rats, and beagle dogs; conditions: range across mice, rats, dogs
[15] = target: T10, COX1 (Homo sapiens, UniProt P23219); test: Safetyscan Enzymatic; format: biochemical; conditions: read-out: RC50 (IC50) COX1 Inhibitor
T10 construct: purchased DiscoverX (Eurofins)

[16] = target: T11, EDNRA (Homo sapiens, UniProt P25101); test: Safetyscan Calcium Flux; format: cell-based
T11 construct: purchased DiscoverX (Eurofins) Safetyscan Panel

[17] = target: T12, COX2 (Homo sapiens, UniProt P35354); test: Safetyscan Enzymatic; format: biochemical; conditions: read-out: RC50 (IC50) COX2 Inhibitor
T12 construct: purchased DiscoverX (Eurofins)

[18] = target: T13, hERG (Homo sapiens, UniProt Q12809); test: Safetyscan Ion Channel; format: cell-based; conditions: blocker mode, read-out: RC50 (IC50) hERG Blocker
T13 construct: purchased DiscoverX (Eurofins)

[19] = target: T14, PDE4D2 (Homo sapiens, UniProt Q08499); test: Safetyscan Enzymatic; format: biochemical; conditions: read-out: RC50 (IC50) PDE4D2 Inhibitor
T14 construct: purchased DiscoverX (Eurofins)

[20] = tested on: MIA PaCa-2 tumor mouse xenograft; test: Antitumor efficacy study in MIA PaCa-2 mouse xenograft; conditions: for tumor growth inhibition (TGI): single agent, 25 days
[21] = pKa determination (Sirius T3); format: physicochemical; conditions: for pKa: water/methanol co-solvent mixture
Experimental: Sirius T3Dt (Sirius Analytical Instruments Ltd) fitted with combination Ag/AgCl pH electrode was used for the determination of dissociation constants. The pKa and psKa values were calculated by Sirius T3Dt software (Sirius Analytical Instruments Ltd, Version 1.0.12.120). There are two methods available on the Sirius T3 for pKa measurement: potentiometric titration and spectroscopic (UV) titration.
UV metric method: Pipetted 5 µL of sample stock solution (10 mM in DMSO) and 25 µL fast UV buffer into a sample vial, and 1.5 mL of 80%v/v MeOH was added into the sample vial automatically. Pre - acidified the sample solution with 0.5 M HCl by the instrument automatically, and then titrated three times from low to high pH. Refined the data to get aqu eous pKa value. pH metric method: About 1 mg of sample was weighed into a sample vial. 1.50 mL of 80%v/v MeOH was added into the vial automatically. The sample was solution pre -acidified with 0.5 M HCl by the instrument automatically, and then titrated three times from low to high pH. Refined the data to get aqueous pKa value.
Sirius T3 software always fits Yasuda -Shedlovsky data linearly, according to the equation.
• Yi is calculated as psKa + log [H 2O]
• psKa represents apparent pKa values of compounds measured in water/co -solvent mixtures • [H2O] represents the concentration of H2O in mixtures solution […]
• ε i represents dielectric constant of water/co-solvent mixture
Table S3. pKa of MRTX0902
Cmpd pKa pKa (pH Final pKa

[22] = target: T15, MAOA (Homo sapiens, UniProt P21397); test: Safetyscan Enzymatic; format: biochemical; conditions: read-out: RC50 (IC50) MAOA Inhibitor
T15 construct: purchased DiscoverX (Eurofins)

[23] = CD-1, Sprague-Dawley, beagle, mouse, rat, dog, in vivo, IV administration

T4 sequence (P04150 whole entry): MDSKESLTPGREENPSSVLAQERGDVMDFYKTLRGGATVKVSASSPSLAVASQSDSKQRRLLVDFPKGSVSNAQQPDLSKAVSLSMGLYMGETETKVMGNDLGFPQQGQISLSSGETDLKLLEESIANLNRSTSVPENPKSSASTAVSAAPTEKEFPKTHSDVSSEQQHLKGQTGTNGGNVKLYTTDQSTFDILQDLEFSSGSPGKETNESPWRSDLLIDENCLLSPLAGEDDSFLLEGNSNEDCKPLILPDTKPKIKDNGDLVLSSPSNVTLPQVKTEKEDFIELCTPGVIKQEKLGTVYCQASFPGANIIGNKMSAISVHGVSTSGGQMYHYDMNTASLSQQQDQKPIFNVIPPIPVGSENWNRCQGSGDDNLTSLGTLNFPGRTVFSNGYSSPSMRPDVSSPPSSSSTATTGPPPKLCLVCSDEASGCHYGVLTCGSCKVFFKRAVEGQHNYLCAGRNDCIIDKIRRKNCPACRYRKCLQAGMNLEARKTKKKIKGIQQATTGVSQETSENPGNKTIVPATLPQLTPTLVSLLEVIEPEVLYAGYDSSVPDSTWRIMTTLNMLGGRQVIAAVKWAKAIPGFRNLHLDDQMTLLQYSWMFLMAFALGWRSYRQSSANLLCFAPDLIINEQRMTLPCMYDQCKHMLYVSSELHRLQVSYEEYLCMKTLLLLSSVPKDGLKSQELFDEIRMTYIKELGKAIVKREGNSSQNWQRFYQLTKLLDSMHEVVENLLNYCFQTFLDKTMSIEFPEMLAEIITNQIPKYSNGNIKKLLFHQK
T6 sequence (P25021 whole entry): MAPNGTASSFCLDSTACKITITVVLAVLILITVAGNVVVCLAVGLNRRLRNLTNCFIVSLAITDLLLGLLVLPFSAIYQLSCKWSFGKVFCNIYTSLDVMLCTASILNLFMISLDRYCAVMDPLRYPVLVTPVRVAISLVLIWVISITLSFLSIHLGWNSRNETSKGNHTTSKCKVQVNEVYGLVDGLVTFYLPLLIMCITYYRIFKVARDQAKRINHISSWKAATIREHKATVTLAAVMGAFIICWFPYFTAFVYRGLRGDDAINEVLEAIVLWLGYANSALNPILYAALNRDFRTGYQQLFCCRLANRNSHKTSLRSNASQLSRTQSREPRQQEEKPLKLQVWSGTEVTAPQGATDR
T11 sequence (P25101 21-427): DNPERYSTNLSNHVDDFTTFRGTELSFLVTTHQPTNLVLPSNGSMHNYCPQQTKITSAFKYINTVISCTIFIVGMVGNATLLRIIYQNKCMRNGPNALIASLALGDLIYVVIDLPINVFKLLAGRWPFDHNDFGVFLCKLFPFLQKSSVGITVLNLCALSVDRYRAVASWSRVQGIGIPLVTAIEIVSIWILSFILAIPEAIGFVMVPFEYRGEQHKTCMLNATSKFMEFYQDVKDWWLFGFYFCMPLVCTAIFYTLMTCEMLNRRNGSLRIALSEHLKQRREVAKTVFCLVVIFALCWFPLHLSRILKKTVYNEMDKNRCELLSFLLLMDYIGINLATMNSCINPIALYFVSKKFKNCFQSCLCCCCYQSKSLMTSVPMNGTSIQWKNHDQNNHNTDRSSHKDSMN
T3 sequence (P08588 whole entry): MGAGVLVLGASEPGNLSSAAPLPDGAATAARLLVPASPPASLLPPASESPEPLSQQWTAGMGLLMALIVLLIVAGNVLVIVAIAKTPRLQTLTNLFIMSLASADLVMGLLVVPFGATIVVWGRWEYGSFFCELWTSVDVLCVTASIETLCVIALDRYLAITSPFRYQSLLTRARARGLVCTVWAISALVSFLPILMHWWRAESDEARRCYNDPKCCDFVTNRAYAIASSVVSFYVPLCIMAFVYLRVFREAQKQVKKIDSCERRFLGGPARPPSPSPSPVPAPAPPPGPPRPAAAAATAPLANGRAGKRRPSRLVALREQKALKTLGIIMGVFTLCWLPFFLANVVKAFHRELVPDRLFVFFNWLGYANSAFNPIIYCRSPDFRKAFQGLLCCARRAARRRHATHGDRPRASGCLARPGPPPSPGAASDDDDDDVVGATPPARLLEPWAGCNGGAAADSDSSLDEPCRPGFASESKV
T7 sequence (P29274 whole entry): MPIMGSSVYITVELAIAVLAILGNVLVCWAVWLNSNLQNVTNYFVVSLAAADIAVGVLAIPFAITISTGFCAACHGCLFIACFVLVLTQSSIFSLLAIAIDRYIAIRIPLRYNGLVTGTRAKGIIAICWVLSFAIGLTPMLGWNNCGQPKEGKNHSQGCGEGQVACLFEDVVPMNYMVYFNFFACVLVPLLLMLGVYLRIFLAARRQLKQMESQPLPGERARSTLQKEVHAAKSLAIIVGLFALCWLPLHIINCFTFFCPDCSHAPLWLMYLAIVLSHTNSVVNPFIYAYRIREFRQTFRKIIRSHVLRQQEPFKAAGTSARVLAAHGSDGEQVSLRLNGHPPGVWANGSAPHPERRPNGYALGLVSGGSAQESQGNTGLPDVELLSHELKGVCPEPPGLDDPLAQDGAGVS
T14 sequence (Q08499 303-809 limits assumed): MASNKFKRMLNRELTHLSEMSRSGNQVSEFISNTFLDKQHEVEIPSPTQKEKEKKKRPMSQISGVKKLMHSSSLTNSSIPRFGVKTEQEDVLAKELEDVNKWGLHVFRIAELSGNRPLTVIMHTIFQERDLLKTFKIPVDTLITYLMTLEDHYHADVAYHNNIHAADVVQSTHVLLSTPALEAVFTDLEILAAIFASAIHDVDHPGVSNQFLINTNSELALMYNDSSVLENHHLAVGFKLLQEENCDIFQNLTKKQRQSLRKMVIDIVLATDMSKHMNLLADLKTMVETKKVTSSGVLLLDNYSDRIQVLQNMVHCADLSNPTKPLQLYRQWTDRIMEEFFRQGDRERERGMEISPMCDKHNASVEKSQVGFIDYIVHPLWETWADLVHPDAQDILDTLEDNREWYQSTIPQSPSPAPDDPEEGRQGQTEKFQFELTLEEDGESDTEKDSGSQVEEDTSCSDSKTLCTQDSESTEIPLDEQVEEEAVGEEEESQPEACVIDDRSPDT
T10 sequence (P23219 24-599): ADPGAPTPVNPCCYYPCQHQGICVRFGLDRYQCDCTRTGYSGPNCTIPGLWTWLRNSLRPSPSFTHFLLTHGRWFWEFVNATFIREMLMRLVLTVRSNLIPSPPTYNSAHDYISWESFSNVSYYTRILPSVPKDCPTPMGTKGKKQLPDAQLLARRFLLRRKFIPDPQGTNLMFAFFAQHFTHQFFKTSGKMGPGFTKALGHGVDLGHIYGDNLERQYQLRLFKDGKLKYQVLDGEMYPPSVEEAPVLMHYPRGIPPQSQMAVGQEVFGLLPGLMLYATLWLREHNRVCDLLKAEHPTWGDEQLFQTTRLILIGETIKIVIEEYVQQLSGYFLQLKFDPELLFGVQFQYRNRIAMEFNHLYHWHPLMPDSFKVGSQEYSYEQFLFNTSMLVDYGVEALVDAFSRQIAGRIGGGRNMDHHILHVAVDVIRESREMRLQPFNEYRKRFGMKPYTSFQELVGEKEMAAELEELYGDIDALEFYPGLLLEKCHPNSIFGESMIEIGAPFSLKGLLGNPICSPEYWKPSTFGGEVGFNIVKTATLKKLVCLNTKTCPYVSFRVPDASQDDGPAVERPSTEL
T5 sequence (P35968 20-1356): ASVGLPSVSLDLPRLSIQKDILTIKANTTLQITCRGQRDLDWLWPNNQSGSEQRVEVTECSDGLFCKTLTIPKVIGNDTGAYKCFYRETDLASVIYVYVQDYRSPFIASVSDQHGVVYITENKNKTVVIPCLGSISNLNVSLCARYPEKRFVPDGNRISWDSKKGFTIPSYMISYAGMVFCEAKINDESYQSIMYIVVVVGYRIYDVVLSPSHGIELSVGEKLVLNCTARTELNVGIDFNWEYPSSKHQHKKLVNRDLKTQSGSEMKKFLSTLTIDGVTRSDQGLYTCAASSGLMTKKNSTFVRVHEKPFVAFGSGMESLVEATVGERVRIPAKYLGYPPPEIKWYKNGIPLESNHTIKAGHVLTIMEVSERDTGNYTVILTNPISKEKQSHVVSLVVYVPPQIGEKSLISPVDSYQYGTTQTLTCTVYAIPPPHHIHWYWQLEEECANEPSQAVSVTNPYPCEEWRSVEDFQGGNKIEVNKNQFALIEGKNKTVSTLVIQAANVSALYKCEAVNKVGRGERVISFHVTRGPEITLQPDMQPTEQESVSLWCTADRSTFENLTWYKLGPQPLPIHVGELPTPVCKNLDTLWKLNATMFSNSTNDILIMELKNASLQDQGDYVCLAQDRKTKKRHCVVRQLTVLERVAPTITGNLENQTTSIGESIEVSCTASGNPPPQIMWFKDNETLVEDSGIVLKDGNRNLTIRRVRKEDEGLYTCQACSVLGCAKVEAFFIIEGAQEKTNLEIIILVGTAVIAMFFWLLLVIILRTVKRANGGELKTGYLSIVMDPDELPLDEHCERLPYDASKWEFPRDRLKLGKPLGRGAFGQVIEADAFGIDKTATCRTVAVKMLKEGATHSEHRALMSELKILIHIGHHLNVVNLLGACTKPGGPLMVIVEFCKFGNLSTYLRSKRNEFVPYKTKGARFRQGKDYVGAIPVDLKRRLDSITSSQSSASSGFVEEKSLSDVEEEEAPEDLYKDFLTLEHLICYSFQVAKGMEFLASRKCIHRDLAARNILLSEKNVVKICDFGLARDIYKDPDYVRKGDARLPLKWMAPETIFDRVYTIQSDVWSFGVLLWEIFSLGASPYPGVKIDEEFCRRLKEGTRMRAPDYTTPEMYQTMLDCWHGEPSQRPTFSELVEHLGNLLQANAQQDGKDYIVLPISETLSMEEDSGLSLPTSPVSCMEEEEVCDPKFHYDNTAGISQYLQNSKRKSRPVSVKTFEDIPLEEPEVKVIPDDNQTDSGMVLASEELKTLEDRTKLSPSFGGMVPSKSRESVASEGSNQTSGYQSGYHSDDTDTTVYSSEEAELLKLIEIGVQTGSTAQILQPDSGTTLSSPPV

Cc1c(C#N)cccc1[C@@H](C)Nc1nnc(C)c2cnc(N3CCOCC3)cc12 [Compound 32, (R)-2-Methyl-3-(1-((4-methyl-7-morpholinopyrido[3,4-d]pyridazin-1-yl)amino)ethyl)benzonitrile]
bioavailability [1]: 69% | IC50 [2]: > 10 µM | IC50 [3]: > 10 µM | EC50 ([4]; agonist mode, read-out: RC50 (EC50) ADRB1 Agonist): > 10 µM | IC50 ([4]; antagonist mode, read-out: RC50 (IC50) ADRB1 Antagonist): > 10 µM | EC50 ([5]; agonist mode, read-out: RC50 (EC50) GR Agonist): > 10 µM | IC50 ([5]; antagonist mode, read-out: RC50 (IC50) GR Antagonist): > 10 µM | IC50 [6]: > 10 µM | IC50 [7]: 3.6 µM | EC50 ([8]; agonist mode, read-out: RC50 (EC50) HRH2 Agonist): > 10 µM | IC50 ([8]; antagonist mode, read-out: RC50 (IC50) HRH2 Antagonist): > 10 µM | Kp uu at 1 h ([9]; 1 h after PO 100 mg/kg single dose): 1.56 | Kp uu at 8 h ([9]; 8 h after PO 100 mg/kg single dose): 1.03 | EC50 ([10]; agonist mode, read-out: RC50 (EC50) ADORA2A Agonist): > 10 µM | IC50 ([10]; antagonist mode, read-out: RC50 (IC50) ADORA2A Antagonist): > 10 µM | IC50 [11]: > 10 µM | IC50 [12]: > 10 µM | IV t1/2 ([13]; IV 1 mg/kg): 37.2 min | Vd,ss ([13]; IV 1 mg/kg): 0.28 L/kg | clearance ([13]; Sprague-Dawley, in vivo, IV 1 mg/kg): 14.6 mL/min/kg | bioavailability ([13]; Sprague-Dawley, in vivo, IV/PO 1/10 mg/kg, PO suspension in 0.5% MC (4000 cps)/0.2% Tween80 in water): 83% | clearance [14, 23]: 4.4 to 14.6 mL/min/kg | half-life [14, 23]: 37.2 to 78 min | Vd ([14]; CD-1, Sprague-Dawley, beagle, mouse, rat, dog, in vivo, IV administration, read-out: volume of distribution): 0.28 to 0.48 L/kg | bioavailability ([14]; PO suspension in 0.5% MC (4000 cps)/0.2% Tween80 in water): 38–83 %F | IC50 [15]: > 10 µM | EC50 ([16]; agonist mode, read-out: RC50 (EC50) EDNRA Agonist): > 10 µM | IC50 ([16]; antagonist mode, read-out: RC50 (IC50) EDNRA Antagonist): > 10 µM | IC50 [17]: > 10 µM | IC50 [18]: > 10 µM | IC50 [19]: > 10 µM | tumor regression ([20]; MRTX0902 25 mg/k bid in combination with MRTX849 10 mg/kg qd): −54% | tumor regression ([20]; MRTX0902 50 mg/kg bid in combination with MRTX849 10 mg/kg qd): −92% | tumor-free animals ([20]; MRTX0902 50 mg/kg bid with MRTX849 10 mg/kg qd, n = 5 animals/group): two tumor-free animals | tumor growth inhibition (TGI) ([20]; 25 mg/kg bid PO): 41% | tumor growth inhibition (TGI) ([20]; 50 mg/kg bid PO): 53% | ionized at pH 7.4 ([21]; pH 7.4, based on measured pKa): ~17% | pKa ([21]; UV metric method, read-out: pKa (UV metric)): 6.78 | pKa ([21]; pH 7.4, pKa (final pKa result)): 6.7 | pKa ([21]; pH metric method, read-out: pKa (pH metric)): 6.62 | IC50 [22]: 8.88 µM
